# Target: Lysine-specific histone demethylase 1A (Homo sapiens, UniProt O60341)
# Experiment: In Vitro Enzyme Inhibition Assay: The enzymatic assay of LSD1 activity is based on Time Resolved-Fluorescence Resonance Energy Transfer (TR-FRET) detection. The inhibitory properties of compounds to LSD1 were determined in 384-well plate format under the following reaction conditions: 0.1-0.5 nM LSD1, 50 nM H3K4mel-biotin labeled peptide (Anaspec cat #64355), 2 μM FAD in assay buffer of 50 mM HEPES, pH7.3, 10 mM NaCl, 0.005% Brij35, 0.5 mM TCEP, 0.2 mg/ml BSA. Reaction product was determined quantitatively by TR-FRET after the addition of detection reagent Phycolink Streptavidin-allophycocyanin (Prozyme) and Europium-anti-unmodified histone H3 lysine 4 (H3K4) antibody (PerkinElmer) in the presence of LSD1 inhibitor such as 1.8 mM of Tranylcypromine hydrochloride (2-PCPA) in LANCE detection buffer (PerkinElmer) to final concentration of 12.5 nM and 0.25 nM respectively.
smiles,measurement,value
Cn1ncc2cc(-c3sc(N4CC[C@@H]5CNC[C@@H]5CC4)nc3-c3ccc(C#N)cc3)ccc21,IC50,< 100 nM

# From ChEMBL document CHEMBL5726791, “Inhibitors of lysine specific demethylase-1” (2018)
